Reference: PubChem BioAssay (NCI)
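Briefly, cells in 96-well plates were exposed to five compound concentrations for 48 h, and endpoints were estimated by linear interpolation. Definition used: TGI = concentration required for complete inhibition of growth.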

Experiments:
Test in all cases: inhibition of tumour cell growth, NCI panel, 48 h
[1] = system: ACHN renal
[2] = system: SF-295 CNS
[3] = system: A498 renal
[4] = system: NCI-H460 lung
[5] = system: HCT-116 colon
[6] = system: M14 melanoma
[7] = system: HL-60(TB) leukemia
[8] = system: NCI/ADR-RES ovarian
[9] = system: NCI-H23 lung
[10] = system: PC-3 prostate
[11] = system: SK-MEL-28 melanoma
[12] = system: U251 CNS
[13] = system: HOP-62 NSCLC
[14] = system: MDA-MB-231 breast
[15] = system: SW-620 colon
[16] = system: SK-OV-3 ovarian
[17] = system: SNB-19 CNS
[18] = system: RXF 393 renal

Row | Structure (SMILES) | TGI [1] [µM] | TGI [2] [µM] | TGI [3] [µM] | TGI [4] [µM] | TGI [5] [µM] | TGI [6] [µM] | TGI [7] [µM] | TGI [8] [µM] | TGI [9] [µM] | TGI [10] [µM] | TGI [11] [µM] | TGI [12] [µM] | TGI [13] [µM] | TGI [14] [µM] | TGI [15] [µM] | TGI [16] [µM] | TGI [17] [µM] | TGI [18] [µM]
1 | CC(=O)c1cc(CC2Cc3cc4c(cc3C2=O)CCC4)cc2c1CCC2 (stereo unspecified) | > 100 | > 100 | > 100 | > 100 | > 100 | > 100 | 56.2 | > 100 | > 100 | > 100 | > 100 | > 100 | > 100 | > 100 | > 100 | > 100 | > 100 | 
2 | CSCCC(NC(=O)Cc1ccc(C(=O)c2ccccc2)cc1)C(=O)N1CCN(CCCCN2c3ccccc3Sc3cc(N=[N+]=[N-])ccc32)CC1 (stereo unspecified) | > 100 | > 100 | > 100 | > 100 | > 100 |  | > 100 |  | > 100 | > 100 |  | > 100 | > 100 | > 100 |  | > 100 |  | > 100
3 | Cc1ccc(C(=O)O)c(/C=C2\Cc3cc(C)cc(C)c3C2=O)c1 | > 100 | > 100 | > 100 | > 100 | > 100 |  | > 100 |  |  | > 100 | > 100 | > 100 | > 100 | > 100 | > 100 |  | > 100 | > 100
4 | C=C1C2C[C@@H]3O[C@H]4C[C@H]5O[C@@]6(C[C@@H]7O[C@]8(C[C@H](C)[C@@H]9O[C@@H]%10CC(C=O)O[C@@H]%10C[C@@H]9O8)C[C@H](C)[C@@H]7O6)C[C@H]5O[C@H]4[C@H](C)[C@H]3OC(=O)C[C@H]3CC[C@@H]4OC5[C@H]6O[C@]7(CC[C@H]8CC(=C)[C@H](CC[C@@H](C[C@H]1C)O2)O8)CC6O[C@@H]5[C@@H](O7)[C@H]4O3 (stereo partly specified) | > 1 | > 1 | > 1 | > 1 | > 1 | > 1 |  |  | 0.00195 | > 1 |  | > 1 | > 1 | > 0.218 | > 1 | > 1 | > 1 | 
5 | N#CC(NNC(=O)c1c(Cl)c(Cl)c(Cl)c(Cl)c1-c1nc2ccc(C(=O)c3ccccc3)cc2[nH]1)c1ccccc1 (stereo unspecified) | > 100 | 22.1 |  |  | > 100 | 31.1 | 45.6 | 32.2 | 90.3 | > 100 | > 100 | > 100 | 63.7 | 36.4 | > 100 | 69.8 | 99.2 | 22.8
6 | COc1ccc(C(=O)N2CCN(c3ccc4c(c3)OCC(=O)N4)CC2)cc1OC | > 100 | > 100 |  | > 100 | > 100 | > 100 | > 100 | > 100 | > 100 | > 100 | > 100 | > 100 | > 100 | > 100 | > 100 | > 100 | > 100 | 
7 | Clc1cc2nc(C3CCCCO3)[nH]c2cc1Cl (stereo unspecified) | > 100 | > 100 |  | > 100 | > 100 | > 100 | > 53.5 | > 52.1 | > 59.8 | > 100 | > 100 | > 96.7 | > 100 | > 100 | > 100 | > 100 | > 100 | > 52.6
8 | CC(=O)c1cc2c(s1)C(=O)c1ccsc1C2=O | 0.626 | 0.307 | 12.6 |  | 1.59 | 1.2 | 0.369 | 2.59 | 0.337 | 1.15 | 0.361 | 0.785 | 0.916 |  | 0.37 | 5.38 | 1.02 | 0.683
9 | COC(O)C(=O)c1c2c(cc3c1CCC3)CCC2 (stereo unspecified) | > 100 | > 100 | > 100 | > 100 | > 100 | > 100 | 79.9 | > 100 | > 100 | > 100 | > 100 | > 100 | > 100 | > 100 | > 100 | > 100 | > 100 | 
10 | Cc1nn(C(=O)c2ccc(Cl)cc2)c2c1C(c1ccccc1O)SC(N)=N2 (stereo unspecified) | > 10 | > 10 |  | > 10 | > 10 | > 10 | > 10 | > 10 | > 10 | > 10 | > 10 | > 10 | > 10 | > 10 | > 10 | > 10 | > 10 | > 10
11 | CCOC(=O)c1cc(-c2ccc([N+](=O)[O-])cc2)c([N+](=O)[O-])[nH]1 | > 10 | 7.47 |  | > 10 | > 10 | > 10 |  | > 10 | 8.01 |  |  | > 10 |  | > 10 |  | > 10 | > 10 | 9.41
12 | Cc1cc(O)c2c(c1)C(C1OC(CO)C(O)C(O)C1O)c1cc(O)cc(O)c1C2=O (stereo unspecified) | > 100 | > 100 | > 100 | > 100 | > 100 | > 100 | > 100 | > 100 | > 100 | > 100 | > 100 | > 100 | > 100 | > 100 | > 100 | > 100 | > 100 | 
13 | COc1ccc(C(OC(=O)[C@H](O[Si](C)(C)C(C)(C)C)[C@@H](NC(=O)c2ccccc2)c2ccccc2)c2ccc(OC)cc2)cc1 | > 100 | > 100 | > 100 | > 100 | > 100 |  |  | > 100 | > 100 | > 100 |  | > 100 | > 100 | > 100 | > 100 |  | > 100 | > 100
14 | NC1=NCC(CN2CCCCC2)O1 (stereo unspecified) | > 100 | > 100 |  | > 100 | > 100 | > 100 | > 100 | > 100 |  | > 100 | > 100 | > 100 | > 100 | > 100 | > 100 | > 100 | > 100 | > 100
